Laboratory results published in article PMC10724926, “Characterization of an efficient N-oxygenase from Saccharothrix sp. and its application in the synthesis of azomycin” (Biotechnology for Biofuels and Bioproducts, 2023).
Read-outs that look alike come from different tables or passages of the source.

Assays:
[1] = test system: T1, SaRohS; assay: HPLC of azomycin formed, Michaelis-Menten fit; format: biochemical, Saccharothrix sp.; conditions: pH 5.5, 25 °C, 20 min, 10 µM enzyme, 2 mM FeSO4, 50 µM PMS, 5 mM NADH, 20 mM HEPES
T1 construct: codon-optimised gene in pETDuet-28a+, E. coli BL21 (DE3), Ni-NTA purified
From the text: HPLC of azomycin formed, Michaelis-Menten fit on SaRohS

[2] = test system: Nc1ncc[nH]1; assay: purified protein; conditions: pH 5.5, 25 °C, 20 min, 10 µM enzyme, 2 mM FeSO4, 50 µM PMS, 5 mM NADH, 20 mM HEPES

Km [1] | Km ([1]; read-out: G95A/K115T) | Km ([1]; read-out: T75A) | Molecule | Km [2] | kcat [2] | kcat/Km [2]
182.69 ± 0.01 µM | 82.68 ± 0.001 µM | 924.17 ± 0.1 µM | Nc1ncc[nH]1 [2-aminoimidazole] |  |  | 
 |  |  | KaRohS (Kitasatospora azatica) | 390.55 ± 0.02 µM | 0.00383 ± 8.33e-05 s⁻¹ | 10 M⁻¹ s⁻¹
